Counter-ions that a name gives are not always drawn.
Tests used:
[1] = test system: Dextran-induced edema formation in the ears of mice; experiment: Inhibition of Dextran-induced edema formation in the ears of mice; format: in vivo, male Swiss mice; conditions: Column B, at 10 mg/kg body weight, 1 h before dextran; for inhibition in vivo at 10 mg/kg: Mus musculus, po, read-out: inhibition of Dextran-induced blueing of the ears of mice, % inhibition
From the text: Inhibition of Dextran-induced edema formation in the ears of mice.
Intravenous injection of Dextran T500® (Pharmacia) and pontamine sky-blue dye into mice results in increased vascular permeability and edema formation, characterized by an intense blueing of the ears. Determination of the amount of extravasated dye is presumed to yield a quantitative measure of the 5-lipoxygenase inhibiting activity of the test compounds (Drug. Dev. Res. 8, 213-218, 1986). Unfasted male Swiss mice weighing 24-26 g were used in the experiments which were performed between 13.00 pm and 17.00 pm at an ambient temperature of 22±1° C. The mice were treated orally with a test compound of formula (I) dissolved in a volume of […] of either polyethyleneglycol (PEG 200) or hydroxypropyl cyclodextrine at doses varying between 1.25 and 40 mg per kg bodyweight. In control experiments the mice were administered an identical amount of solvent alone. One hour after treatment there was injected intravenously an isotonic saline solution containing 60 mg/ml Dextran T500® and 13 mg/ml pontamine sky-blue dye in a volume of 0.1 ml per 10 g bodyweight. One hour and forty-five minutes later the animals were sacrificed by ether and their ears were removed. Extraction and quantification of the extravasated dye were performed as described (Drug Dev. Res. 8, 213-218, 1986). The calculated percentage of inhibition of ear blueing upon administration of a compound of formula (I) at a dose of 10 mg/kg bodyweight is shown in the second column of table 12.

[2] = biological target: T1, 5-lipoxygenase (Rattus norvegicus, UniProt P12527); experiment: Arachidonate 5-lipoxygenase inhibition in Rat Basophilic Leukemia Cells Supernatant; format: biochemical; design: dose or concentration left out as unconfirmed; conditions: Column A; 5-HPETE and LTB4 formation; read-out: 5-lipoxygenase inhibition in RBL cells supernatant, % inhibition
T1 construct: The supernatant, aliquoted and stored at -70° C., was used as the source of 5-lipoxygenase activity; endogenous in cells; host or cells: Rat basophilic leukemia (RBL) cells, 10,000×g supernatant of the sonicate (crude, not purified)
T1 sequence (P12527 1-673): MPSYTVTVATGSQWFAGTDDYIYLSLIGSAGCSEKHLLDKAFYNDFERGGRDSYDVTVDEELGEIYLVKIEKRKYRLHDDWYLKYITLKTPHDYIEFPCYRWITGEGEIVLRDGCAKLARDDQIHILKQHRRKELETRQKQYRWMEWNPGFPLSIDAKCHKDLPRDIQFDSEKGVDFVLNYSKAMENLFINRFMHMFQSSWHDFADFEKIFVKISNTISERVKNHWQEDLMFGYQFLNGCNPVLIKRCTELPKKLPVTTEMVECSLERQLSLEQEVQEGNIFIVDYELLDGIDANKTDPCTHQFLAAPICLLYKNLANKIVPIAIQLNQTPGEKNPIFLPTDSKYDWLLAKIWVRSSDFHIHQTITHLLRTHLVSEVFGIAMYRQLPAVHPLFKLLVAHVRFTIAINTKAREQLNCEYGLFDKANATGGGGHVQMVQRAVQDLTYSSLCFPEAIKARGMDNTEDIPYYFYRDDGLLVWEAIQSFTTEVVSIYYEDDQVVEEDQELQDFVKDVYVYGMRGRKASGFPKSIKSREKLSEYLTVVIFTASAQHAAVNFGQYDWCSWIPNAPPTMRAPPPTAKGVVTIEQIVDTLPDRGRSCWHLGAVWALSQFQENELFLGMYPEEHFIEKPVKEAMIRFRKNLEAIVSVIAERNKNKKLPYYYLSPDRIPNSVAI

| Compound | inhibition [2] | inhibition in vivo at 10 mg/kg [1] | inhibition of Dextran-induced blueing of the ears of mice, % inhibition ([1]; oral, 10 mg/kg) |
| --- | --- | --- | --- |
| CCCCN1C(=O)N(c2ccc(N3CCN(c4ccc(O)cc4)CC3)cc2)C(C)(C)C1=O [Compound 6.10] | 90% | 93% |  |
| Cn1c(=O)n(C)c(=O)n(-c2ccc(N3CCN(c4ccc(O)cc4)CC3)cc2)c1=O [Compound 9.05] |  | 83% |  |
| CCN(C1=NC(C(C)C)CS1)c1ccc(N2CCN(c3ccc(O)cc3)CC2)cc1 (stereo not shown) [Compound 3.14] |  | 74% |  |
| CCC(C(O)c1ccccc1)n1ncn(-c2ccc(N3CCN(c4ccc(O)cc4)CC3)cc2)c1=O (stereo not shown) [Compound 7.69] |  | 85% |  |
| O=[N+]([O-])c1cc(F)ccc1N1CCN(c2ccc(O)cc2)CC1 [Compound 1.16, 4-[4-(4-fluoro-2-nitrophenyl)-1-piperazinyl]phenol monohydrochloride] | 94% |  |  |
| CC(C)N1C(=O)N(c2ccc(N3CCN(c4ccc(O)cc4)CC3)cc2)C(C)(C)C1=O [Compound 6.09] | 84% |  |  |
| CCCn1c(=O)n(-c2ccc(N3CCN(c4ccc(O)cc4)CC3)cc2)c(=O)n(C(C)C(=O)c2ccc(Br)cc2)c1=O (stereo not shown) [Compound 9.07] |  | 83% |  |
| CCCCN1C(=O)N(c2ccc(N3CCN(c4ccc(O)cc4)CC3)cc2)C(=O)C1C (stereo not shown) [Compound 5.03] | 79% | 72% |  |
| CC(C(O)c1ccc(Br)cc1)n1ncn(-c2ccc(N3CCN(c4ccc(O)cc4)CC3)cc2)c1=O (stereo not shown) [Compound 7.68] |  |  | 81% |
| CCCN1C(=O)N(c2ccc(N3CCN(c4ccc(O)cc4)CC3)cc2)C(C)(C)C1=O [Compound 6.08] | 75% | 89% |  |
| CCCCN1C(=O)N(c2ccc(N3CCN(c4ccc(O)cc4)CC3)cc2)CC1(C)C [Compound 4.13] | 95% |  |  |
| CC12CCCN1C(=O)N(c1ccc(N3CCN(c4ccc(O)cc4)CC3)cc1)C2=O (stereo not shown) [Compound 5.10] | 69% | 75% |  |
| CCC(C(=O)c1ccc(Cl)cc1)n1ncn(-c2ccc(N3CCN(c4ccc(O)cc4)CC3)cc2)c1=O (stereo not shown) [Compound 7.41] |  | 82% |  |
| CCN1C(=S)N(c2ccc(N3CCN(c4ccc(O)cc4)CC3)cc2)C(=O)C1(C)C [Compound 5.13] | 71% | 15% |  |
| CCN1CCN(c2ccc(N3CCN(c4ccc(O)cc4)CC3)cc2)C1=O [Compound 4.02] | 84% |  |  |
| Cc1nn(C(C)C(O)c2ccc(Br)cc2)c(=O)n1-c1ccc(N2CCN(c3ccc(O)cc3)CC2)cc1 (stereo not shown) [Compound 7.70, 2-[2-(4-bromophenyl)-2-hydroxy-1-methylethyl]-2,4-dihydro-4-[4-[4-(4-hydroxyphenyl)-1-piperazinyl]phenyl]-5-methyl-3H-1,2,4-triazol-3-one] |  | 85% |  |
| CC(=O)C(C)N1C(=O)N(c2ccc(N3CCN(c4ccc(O)cc4)CC3)cc2)C(=O)C1(C)C (stereo not shown) [Compound 5.08] | 45% | 76% |  |
| CCCCN1CCCSC1=Nc1ccc(N2CCN(c3ccc(O)cc3)CC2)cc1 [Compound 2.01] | 90% | 71% |  |

The next lines start with results.

| inhibition [2] | Compound | inhibition in vivo at 10 mg/kg [1] | inhibition of Dextran-induced blueing of the ears of mice, % inhibition ([1]; oral, 10 mg/kg) |
| --- | --- | --- | --- |
| 90% | CCC(C)N1C(=O)N(c2ccc(N3CCN(c4ccc(O)cc4)CC3)cc2)C(C)(C)C1=O (stereo not shown) [Compound 6.12] | 53% |  |
| 80% | CCC(C)n1nc(C)n(-c2ccc(N3CCN(c4ccc(O)cc4)CC3)cc2)c1=O (stereo not shown) [Compound 7.33, 2,4-dihydro-4-[4-[4-(4-hydroxyphenyl)-1-piperazinyl]phenyl]-5-methyl-2-(1-methylpropyl)-3H-1,2,4-triazol-3-one] | 87% |  |
| 58% | CCCn1c(=O)n(CCC)c(=O)n(-c2ccc(N3CCN(c4ccc(O)cc4)CC3)cc2)c1=O [Compound 9.03] | 94% |  |
| 52% | CCC(C)n1nc(C)n(-c2ccc(N3CCN(c4cc(C)c(O)c(C)c4)CC3)cc2)c1=O (stereo not shown) [Compound 7.50, 2,4-dihydro-4-[4-[4-(4-hydroxy-3,5-dimethylphenyl)-1-piperazinyl]phenyl]-5-methyl-2-(1-methylpropyl)-3H-1,2,4-triazol-3-one] | 88% |  |
| 67% | O=C1CCCCC1n1ncn(-c2ccc(N3CCN(c4ccc(O)cc4)CC3)cc2)c1=O (stereo not shown) [Compound 7.18] | 87% |  |
| 80% | CCCCn1c(=O)cnn(-c2ccc(N3CCN(c4ccc(O)cc4)CC3)cc2)c1=O [Compound 10.05, 4-butyl-2-[4-[4-(4-hydroxyphenyl)-1-piperazinyl]phenyl]-1,2,4-triazine-3,5(2H,4H)-dione] |  |  |
| 100% | CCC(C(=O)c1ccc(Br)cc1)n1ncn(-c2ccc(N3CCN(c4ccc(O)cc4)CC3)cc2)c1=O (stereo not shown) [Compound 7.36] | 93% |  |
| 97% | CCC(C)n1ncn(-c2ccc(N3CCN(c4ccc(O)cc4)CC3)cc2)c1=O (stereo not shown) [Compound 7.06] |  |  |
| 66% | CC(C(=O)c1ccc(F)cc1)n1ncn(-c2ccc(N3CCN(c4ccc(O)cc4)CC3)cc2)c1=O (stereo not shown) [Compound 7.14] | 70% |  |
| 90% | Cc1nn(C(C)C(=O)c2ccc(Br)cc2)c(=O)n1-c1ccc(N2CCN(c3ccc(O)cc3)CC2)cc1 (stereo not shown) [Compound 7.57, 2-[2-(4-bromophenyl)-1-methyl-2-oxoethyl]-2,4-dihydro-4-[4-[4-(4-hydroxyphenyl)-1-piperazinyl]phenyl]-5-methyl-3H-1,2,4-triazol-3-one] | 82% |  |
| 97% | CCC(C)n1ncn(-c2ccc(N3CCN(c4ccc(O)cc4)CC3)c(Br)c2)c1=O (stereo not shown) [Compound 7.21] |  |  |
| 87% | Cc1nn(CC(C)C)c(=O)n1-c1ccc(N2CCN(c3ccc(O)cc3)CC2)cc1 [Compound 7.34] | 66% |  |
| 100% | CC(C(O)c1ccc(Cl)cc1Cl)n1ncn(-c2ccc(N3CCN(c4ccc(O)cc4)CC3)cc2)c1=O (stereo not shown) [Compound 7.22] | 94% |  |
| 94% | CC(C(=O)c1ccc(Br)cc1)n1ncn(-c2ccc(N3CCN(c4ccc(O)cc4)CC3)cc2)c1=O (stereo not shown) [Compound 7.16] | 91% |  |
| 81% | O=c1n(-c2ccc(N3CCN(c4ccc(O)cc4)CC3)cc2)cnn1CC(F)(F)F [Compound 7.11] | 81% |  |
| 51% | CC(C(=O)c1ccc(Cl)cc1)n1ncn(-c2ccc(N3CCN(c4ccc(O)cc4)CC3)cc2)c1=O (stereo not shown) [Compound 7.15] | 97% |  |
| 90% | CCCn1cnn(-c2ccc(N3CCN(c4ccc(O)cc4)CC3)cc2)c1=O [Compound 8.05] |  |  |
| 100% | CC(C(O)c1ccc(Br)cc1)n1ncn(-c2ccc(N3CCN(c4ccc(O)cc4)CC3)cc2)c1=O (stereo not shown) [Compound 7.35] | 79% |  |
| 79% | Cc1cc(N2CCN(c3ccc(-n4c(C)nn(C(C)C(O)c5ccc(Br)cc5)c4=O)cc3)CC2)cc(C)c1O (stereo not shown) [Compound 7.54, 2-[2-(4-bromophenyl)-2-hydroxy-1-methylethyl]-2,4-dihydro-4-[4-[4-(4-hydroxy-3,5-dimethylphenyl)-1-piperazinyl]phenyl]-5-methyl-3H-1,2,4-triazol-3-one] | 76% |  |
| 100% | CCC(C)n1nc(C)n(-c2ccc(N3CCN(c4ccc(O)c(C)c4)CC3)cc2)c1=O (stereo not shown) [Compound 7.38] | 88% |  |

Source: patent US4931444A, “5-lipoxygenase inhibiting 4-(4-phenyl-1-piperazinyl)phenols” (Janssen Pharmaceutica N.V., priority 1989, dated 1990)
